Measured values from patent publication US20110097274A1, “Carbon-11 and fluorine-18 labeled radioligands for positron emission tomography (PET) imaging for the brain serotonin transporters” (priority 2002, published 2011).

How the values were obtained:
[1] = Plasma free fraction (f1) and filter retention by ultrafiltration; type: in vitro ADME, baboon; settings: mean ± SD of four experiments; for Filter retention: activity remaining on filter, radioligand dissolved in saline; for fraction unbound at 20 min: monkey
Method: Plasma and ultrafiltrate activities were counted, and f1 was calculated as the ratio of ultrafiltrate activity to total plasma activity. Triplicate aliquots of the radioligand in pH 7.4 Tris buffer were also processed to determine the filter retention of free tracer.

[2] = Baboon PET study: plasma analysis / input function of parent compound; type: in vivo; settings: baboons; for Vbol (initial distribution volume of parent compound) / Clearance of parent compound: i.v.; for Vbol (initial distribution volume of parent compound) / Clearance / Clearance of parent compound: mean ± SD of four experiments; for Clearance: male, monkey, arterial plasma, iv
Method: PET imaging protocol: PET experiments (n=20) were performed at Columbia University. Two adult male baboons (baboon A and B) were studied twice with each of the 5 radioligands (4 experiments per radioligand). All experiments took place within a 9-month period. Baboons A and B were 31 kg and 21 kg in weight at the beginning of the experimental period and 28 and 22 kg at the end, respectively.
Experiments were performed according to protocols approved by the Columbia-Presbyterian Medical Center Institutional Animal Care and Use Committee. […] Vital signs were monitored every 10 minutes and the temperature was kept constant at 37° C. with heated water blankets. An i.v. perfusion line was used for hydration and injection of radioligands and nonradioactive drugs. A catheter was inserted in a femoral artery for arterial blood sampling. Head was positioned at the center of the field of view as defined by imbedded laser lines. PET imaging was performed with the ECAT EXACT HR+PET scanner (Siemens/CTI, Knoxville, Tenn.). […] A 15 minute transmission scan was obtained prior to radioligand injection for attenuation correction. Activity was injected i.v. over 30 seconds.
Input function measurements: Arterial samples were collected every 5 seconds with an automated system for the first two minutes and manually thereafter at various intervals. A total of 28 samples were collected.
Selected plasma samples (n=6 per study, collected at 2, 4, 12, 30, 60 and 90 minutes after radioligand administration) were further processed by extraction with methanol (MeOH) followed by HPLC analysis to measure the fraction of plasma activity representing unmetabolized parent compound. The parent fraction was measured as follows: plasma (0.5 mL) was pipetted into a centrifuge tube containing MeOH (1.0 mL). […] The liquid phase was separated from the precipitate. Activity in 0.1 mL of the liquid phase was counted and the rest was injected onto the HPLC. The HPLC eluate was fraction-collected in 6 counting tubes (4.0 mL each). The HPLC system consisted of a Waters 510 isocratic pump, a Rheodyne injector equipped with a 2 mL sample loop, a C18 analytical column (Phenomenex ODS-prep, 10 μm, 4.6×250 mm), a Bioscan Flow Cell gamma detector (Bioscan, Washington, D.C.), and a fraction collector. The column was eluted with a mixture of acetonitrile and aqueous 0.1 M ammonium formate (proportion depending on the tracer being analyzed) at a flow rate of 2 mL/minute. Before plasma sample analysis, the retention time of the parent tracer was established by injection of a few μCi of the tracer and detection of the peak using the Bioscan gamma detector.
The parent fraction was calculated as the ratio of activity in the fractions containing the parent to that of the total activity collected. A biexponential function was fitted to the six measured parent fractions, and used to interpolate values between and after the measurements. […] The input function was then calculated as the product of total counts and interpolated fraction parent at each time point. The measured input function values were fitted to a sum of three exponentials, and the fitted values were used as input for the kinetic analyses. […] The initial distribution volume (Vbol, L) was calculated as the ratio of injected dose to peak plasma concentration.

[3] = male, baboon plasma, ultrafiltration

SMILES | Filter retention [1] [%] | fraction unbound at 20 minutes [1, 3] | Parent fraction in plasma at 30 minutes [2] [%] | Vbol (initial distribution volume of parent compound) [2] [L] | Clearance [2] [mL/min] | Clearance of parent compound [2] [L/h] | fraction unbound at 20 min [1, 3] | f1 (plasma free fraction) ([1]; baboon plasma, ultrafiltration) [%]
CN(C)Cc1ccccc1Sc1ccc(C#N)cc1N [[^11C]DASB] | 19.2 ± 4.7 | 0.135 ± 0.017 | 20±1 | 12.6 ± 2.2 | 1400 |  |  | 
[11CH3]Sc1ccc([C@H]2CN3CCC[C@H]3c3ccccc32)cc1 [[^11C]McN 5652] |  |  | 28±13 | 5.9 ± 1.8 |  | 58 ± 13 |  | 
CN(C)Cc1ccccc1Sc1ccc(Br)cc1N [[^11C]DAPA] | 77.9 ± 6.6 |  |  | 8.5 ± 1.8 | 967 |  | 0.018 ± 0.005 | 
CN([11CH3])Cc1ccccc1Sc1ccc(CF)cc1N [[^11C]AFM, [^11C]2-[2-(Dimethylaminomethyl)phenylthio]-5-fluoromethylphenylamine] | 19.3 ± 4.1 |  |  | 17.6 ± 1.3 |  | 90 ± 46 |  | 9.6 ± 0.5
CN(C)Cc1ccccc1Sc1ccc(I)cc1N [[^11C]ADAM] | 88.2 ± 5.2 |  |  | 8.1 ± 3.1 | 1120 |  | 0.009 ± 0.007 | 
